Experimental data published in PMC7355546, “Lignans, Amides, and Saponins from Haplophyllum tuberculatum and Their Antiprotozoal Activity” (Molecules, 2020).
Several values for one entry are separate records, joined by “and”; a condition that tells them apart may be missing. Equal entries are not always repeated.

Tested on: not listed separately
Experiment: In vitro cytotoxicity with L-6 cells (resazurin)
Assay type: cell-based
Conditions: L-6 cells (rat skeletal myoblasts), unit inferred, the other IC50 columns are µM, read-out: L6 Cells (cytotoxicity IC50)
Protocol: Assays were performed in 96-well microtiter plates, each well containing 100 μL of RPMI 1640 medium supplemented with 1% L-glutamine (200 mM) and 10% fetal bovine serum, and 4000 L-6 cells (a primary cell line derived from rat skeletal myoblasts). […] 10 μL of resazurin was then added to each well and the plates incubated for another 2 h. […] Podophyllotoxin (Sigma P4405) was used as control.

SMILES	IC50 at 72 h
COc1cc(C(=O)/C(C)=C(/C)C(=O)c2ccc(O)c(OC)c2)ccc1O [Compound 7, furoguaiaoxidin]	> 281 µM
COc1cc(/C=C/C(=O)NCCCCNC(=O)/C=C/c2ccc(O)c(OC)c2)ccc1O [Compound 8, N,N′-diferuloylputrescine]	146 ± 18.8 µM
COc1cc([C@H]2O[C@@H](c3cc(OC)c(O)c(OC)c3)[C@@H](C)[C@@H]2C)cc(OC)c1O [Compound 4, fragransin B1]	163 ± 4.5 µM
CCOC(CNC(=O)/C=C/c1ccc(O)c(OC)c1)c1ccc(O)cc1 (centres unmarked) [Compound 9, 7′-ethoxy-feruloyltyramine]	208 ± 21.6 µM
COc1cc(CC(C)C(CO)Cc2ccc(O)c(OC)c2)ccc1O (centres unmarked) [Compound 10, 3,3′-dimethoxy-4,4′-dihydroxylignan-9-ol]	128 ± 3.9 µM
COc1cc(CCC(=O)NCCc2ccc(O)cc2)ccc1O [Compound 5, dihydro-feruloyltyramine]	> 318 µM

Same assay, conditions: rat skeletal myoblasts; unit inferred, the other IC50 columns are µM; read-out: L6 Cells (cytotoxicity IC50)

SMILES	IC50 at 72 h
COc1cc(/C=C/C(=O)NCCc2ccc(O)cc2)ccc1O [Compound 6, (E)-N-feruloyltyramine]	247 ± 3.7 µM
COc1cc([C@@H]2c3cc4c(cc3[C@H](O)[C@H]3COC(=O)[C@H]23)OCO4)cc(OC)c1OC [podophyllotoxin, reference compound]	0.03 µM
COc1cc([C@H]2O[C@@H](c3ccc(O)c(OC)c3)[C@H](C)[C@@H]2C)ccc1O [Compound 2, nectandrin B]	115 ± 2.6 µM
COc1cc([C@H]2O[C@@H](c3ccc(O)c(OC)c3)[C@@H](C)[C@H]2C)ccc1O [Compound 1, tetrahydrofuroguaiacin B]	95.2 ± 9.3 µM

Tested on: T. b. rhodesiense (STIB 900) bloodstream forms
Experiment: Activity against Trypanosoma brucei rhodesiense bloodstream forms (resazurin)
Assay type: cell-based
Conditions: IC50 in L6 cells divided by IC50 in T. b. rhodesiense
Protocol: The stock was originally isolated from a patient and adapted to axenic culture conditions after several mouse passages and cloned. Minimum Essential Medium (50 µL) supplemented with 25 mM HEPES, 1 g/L additional glucose, 1% MEM non-essential amino acids (100×), 0.2 mM 2-mercaptoethanol, 1mM Na-pyruvate and 15% heat inactivated horse serum was added to each well of a 96-well microtiter plate. […] Then 4 × 10^3 bloodstream forms of T. b. rhodesiense STIB 900 in 50 µL were added to each well and the plate incubated at 37 °C under a 5% CO2 atmosphere for 70 h. […] Melarsoprol (Arsobal Sanofi-Aventis, received from WHO) was used as control.

SMILES	T. b. rhodesiense SI (selectivity index)
COc1cc(/C=C/C(=O)NCCCCNC(=O)/C=C/c2ccc(O)c(OC)c2)ccc1O [Compound 8, N,N′-diferuloylputrescine]	8 and 7.8
COc1cc([C@H]2O[C@H](c3cc(OC)c(O)c(OC)c3)[C@@H](C)[C@@H]2C)cc(OC)c1O [Compound 3, fragransin B2]	3.6
COc1cc(/C=C/C(=O)NCCc2ccc(O)cc2)ccc1O [Compound 6, (E)-N-feruloyltyramine]	2.0
COc1cc([C@H]2O[C@@H](c3cc(OC)c(O)c(OC)c3)[C@@H](C)[C@@H]2C)cc(OC)c1O [Compound 4, fragransin B1]	3.4
COc1cc([C@H]2O[C@@H](c3ccc(O)c(OC)c3)[C@H](C)[C@@H]2C)ccc1O [Compound 2, nectandrin B]	2.4
CCOC(CNC(=O)/C=C/c1ccc(O)c(OC)c1)c1ccc(O)cc1 (centres unmarked) [Compound 9, 7′-ethoxy-feruloyltyramine]	2.9
COc1cc(CC(C)C(CO)Cc2ccc(O)c(OC)c2)ccc1O (centres unmarked) [Compound 10, 3,3′-dimethoxy-4,4′-dihydroxylignan-9-ol]	5 and 4.6
COc1cc([C@H]2O[C@@H](c3ccc(O)c(OC)c3)[C@@H](C)[C@H]2C)ccc1O [Compound 1, tetrahydrofuroguaiacin B]	1.6

Same assay, conditions: STIB 900

SMILES	activity against T. b. rhodesiense (in words)
COc1cc(/C=C/C(=O)NCCc2ccc(O)cc2)ccc1O [Compound 6, (E)-N-feruloyltyramine]	least active
COc1cc(CCC(=O)NCCc2ccc(O)cc2)ccc1O [Compound 5, dihydro-feruloyltyramine]	least active

Same assay, conditions: STIB 900 bloodstream forms; mean of at least two independent replicates ± absolute deviation; read-out: T. b. rhodesiense IC50

SMILES	IC50
COc1cc(/C=C/C(=O)NCCCCNC(=O)/C=C/c2ccc(O)c(OC)c2)ccc1O [Compound 8, N,N′-diferuloylputrescine]	18.9 ± 8.4 µM
COc1cc(CC(C)C(CO)Cc2ccc(O)c(OC)c2)ccc1O (centres unmarked) [Compound 10, 3,3′-dimethoxy-4,4′-dihydroxylignan-9-ol]	27.5 ± 8.4 µM

Same assay, conditions: Trypanosoma brucei, STIB 900 bloodstream forms; mean of at least two independent replicates ± absolute deviation; read-out: T. b. rhodesiense IC50

SMILES	IC50
COc1cc(C(=O)/C(C)=C(/C)C(=O)c2ccc(O)c(OC)c2)ccc1O [Compound 7, furoguaiaoxidin]	114 µM
COc1cc(/C=C/C(=O)NCCCCNC(=O)/C=C/c2ccc(O)c(OC)c2)ccc1O [Compound 8, N,N′-diferuloylputrescine]	19 µM
COc1cc([C@H]2O[C@H](c3cc(OC)c(O)c(OC)c3)[C@@H](C)[C@@H]2C)cc(OC)c1O [Compound 3, fragransin B2]	47.5 ± 4.5 µM
COc1cc(/C=C/C(=O)NCCc2ccc(O)cc2)ccc1O [Compound 6, (E)-N-feruloyltyramine]	121 ± 36.9 µM
COc1cc([C@H]2O[C@@H](c3cc(OC)c(O)c(OC)c3)[C@@H](C)[C@@H]2C)cc(OC)c1O [Compound 4, fragransin B1]	40.7 ± 0.4 µM
COc1cc([C@H]2O[C@@H](c3ccc(O)c(OC)c3)[C@H](C)[C@@H]2C)ccc1O [Compound 2, nectandrin B]	48.3 ± 1.3 µM
CCOC(CNC(=O)/C=C/c1ccc(O)c(OC)c1)c1ccc(O)cc1 (centres unmarked) [Compound 9, 7′-ethoxy-feruloyltyramine]	72.7 ± 30.4 µM
COc1cc(CC(C)C(CO)Cc2ccc(O)c(OC)c2)ccc1O (centres unmarked) [Compound 10, 3,3′-dimethoxy-4,4′-dihydroxylignan-9-ol]	28 µM
COc1cc(CCC(=O)NCCc2ccc(O)cc2)ccc1O [Compound 5, dihydro-feruloyltyramine]	206 ± 66.7 µM
COc1cc([C@H]2O[C@@H](c3ccc(O)c(OC)c3)[C@@H](C)[C@H]2C)ccc1O [Compound 1, tetrahydrofuroguaiacin B]	59.4 ± 2.5 µM

Same assay, conditions: Trypanosoma brucei, read-out: T. b. rhodesiense IC50

SMILES	IC50
Nc1nc(N)nc(Nc2ccc([As]3SCC(CO)S3)cc2)n1 (centres unmarked) [melarsoprol, reference compound]	0.01 µM

Tested on: L. donovani promastigote form
Experiment: not given
Set-up: method as in PMID 18688887
Conditions: cited from earlier work

SMILES	activity against L. donovani promastigotes (in words)
COc1cc([C@H]2O[C@@H](c3ccc(O)c(OC)c3)[C@H](C)[C@@H]2C)ccc1O [Compound 2, nectandrin B]	inactive

Tested on: L. donovani intracellular amastigotes in mouse peritoneal macrophages
Experiment: Activity against Leishmania donovani intramacrophage amastigotes
Assay type: cell-based
Conditions: Leishmania donovani, Peritoneal macrophage, tested up to 30 μM, read-out: activity against L. donovani in the intracellular amastigote assay
Protocol: Mouse peritoneal macrophages (4 × 10^4 in 100 µL RPMI 1640 medium with 10% heat-inactivated FBS) were seeded into wells of a 96-well plate. After 24 h, 100 µL of 2 × 10^5 amastigote Leishmania donovani were added. The amastigotes were taken from an axenic amastigote culture grown at pH 5.4. The medium containing free amastigote forms was removed after 24 h and replaced with fresh medium. The washing step was repeated and afterwards the serial drug dilution was prepared with at least 6 dilution steps. Compound was dissolved in DMSO at 10 mg/mL and further diluted in medium. After incubation for 96 h at 37 °C under a 5% CO2 atmosphere, the medium was removed and cells were fixed by adding 50 µL 4% formaldehyde solution followed by a staining with a 5 µM DRAQ5 solution. Plates were imaged in ImageXpress XLS (MD) microscope using a 20× air objective (635 nm excitation: 690/50 emission). Nine images were collected per well. Automated image analysis was performed with a script developed on Meta Xpress Software (MD). Three outputs were provided for each well: (i) number of host cell nuclei; (ii) numbers of infected and non-infected host cells; (iii) number of parasite nuclei per infected host cell. The IC50 values were calculated based on the infection rate and the numbers of intracellular amastigotes. Miltefosine was used as control.

SMILES	IC50
COc1cc([C@H]2O[C@@H](c3ccc(O)c(OC)c3)[C@H](C)[C@@H]2C)ccc1O [Compound 2, nectandrin B]	> 30 µM

Same assay, conditions: tested up to 30 μM

SMILES	activity against L. donovani in the intracellular amastigote assay
COc1cc([C@H]2O[C@@H](c3ccc(O)c(OC)c3)[C@H](C)[C@@H]2C)ccc1O [Compound 2, nectandrin B]	not reproduced

Tested on: P. falciparum (NF54)
Experiment: Activity against Plasmodium falciparum erythrocytic stages (3H-hypoxanthine incorporation)
Assay type: cell-based
Conditions: IC50 in L6 cells divided by IC50 in P. falciparum

SMILES	P. falciparum SI (selectivity index)
COc1cc(/C=C/C(=O)NCCCCNC(=O)/C=C/c2ccc(O)c(OC)c2)ccc1O [Compound 8, N,N′-diferuloylputrescine]	4.8
COc1cc([C@H]2O[C@H](c3cc(OC)c(O)c(OC)c3)[C@@H](C)[C@@H]2C)cc(OC)c1O [Compound 3, fragransin B2]	4.7
COc1cc(/C=C/C(=O)NCCc2ccc(O)cc2)ccc1O [Compound 6, (E)-N-feruloyltyramine]	3.6
COc1cc([C@H]2O[C@@H](c3cc(OC)c(O)c(OC)c3)[C@@H](C)[C@@H]2C)cc(OC)c1O [Compound 4, fragransin B1]	8.0
COc1cc([C@H]2O[C@@H](c3ccc(O)c(OC)c3)[C@H](C)[C@@H]2C)ccc1O [Compound 2, nectandrin B]	12.1
CCOC(CNC(=O)/C=C/c1ccc(O)c(OC)c1)c1ccc(O)cc1 (centres unmarked) [Compound 9, 7′-ethoxy-feruloyltyramine]	6.8
COc1cc(CC(C)C(CO)Cc2ccc(O)c(OC)c2)ccc1O (centres unmarked) [Compound 10, 3,3′-dimethoxy-4,4′-dihydroxylignan-9-ol]	13.7
COc1cc([C@H]2O[C@@H](c3ccc(O)c(OC)c3)[C@@H](C)[C@H]2C)ccc1O [Compound 1, tetrahydrofuroguaiacin B]	1.8

Same assay, conditions: NF54

SMILES	activity against P. falciparum (in words)
COc1cc(CC(C)C(CO)Cc2ccc(O)c(OC)c2)ccc1O (centres unmarked) [Compound 10, 3,3′-dimethoxy-4,4′-dihydroxylignan-9-ol]	selectively active
COc1cc(CCC(=O)NCCc2ccc(O)cc2)ccc1O [Compound 5, dihydro-feruloyltyramine]	least active

Same assay, conditions: NF54; mean of at least two independent replicates ± absolute deviation; read-out: P. falciparum IC50

SMILES	IC50
COc1cc([C@H]2O[C@@H](c3cc(OC)c(O)c(OC)c3)[C@@H](C)[C@@H]2C)cc(OC)c1O [Compound 4, fragransin B1]	17.4 ± 2.1 µM
COc1cc([C@H]2O[C@@H](c3ccc(O)c(OC)c3)[C@H](C)[C@@H]2C)ccc1O [Compound 2, nectandrin B]	9.5 ± 0.1 µM
COc1cc(CC(C)C(CO)Cc2ccc(O)c(OC)c2)ccc1O (centres unmarked) [Compound 10, 3,3′-dimethoxy-4,4′-dihydroxylignan-9-ol]	9.3 ± 1.3 µM

Same assay, conditions: Plasmodium falciparum, NF54, NF54; mean of at least two independent replicates ± absolute deviation; read-out: P. falciparum IC50

SMILES	IC50
COc1cc(C(=O)/C(C)=C(/C)C(=O)c2ccc(O)c(OC)c2)ccc1O [Compound 7, furoguaiaoxidin]	48.1 ± 10.9 µM
COc1cc(/C=C/C(=O)NCCCCNC(=O)/C=C/c2ccc(O)c(OC)c2)ccc1O [Compound 8, N,N′-diferuloylputrescine]	30.6 ± 8.3 µM
COc1cc([C@H]2O[C@H](c3cc(OC)c(O)c(OC)c3)[C@@H](C)[C@@H]2C)cc(OC)c1O [Compound 3, fragransin B2]	36.1 ± 1 µM
COc1cc(/C=C/C(=O)NCCc2ccc(O)cc2)ccc1O [Compound 6, (E)-N-feruloyltyramine]	68.4 ± 3.8 µM
COc1cc([C@H]2O[C@@H](c3cc(OC)c(O)c(OC)c3)[C@@H](C)[C@@H]2C)cc(OC)c1O [Compound 4, fragransin B1]	17 µM
COc1cc([C@H]2O[C@@H](c3ccc(O)c(OC)c3)[C@H](C)[C@@H]2C)ccc1O [Compound 2, nectandrin B]	9 to 9.5 µM
CCOC(CNC(=O)/C=C/c1ccc(O)c(OC)c1)c1ccc(O)cc1 (centres unmarked) [Compound 9, 7′-ethoxy-feruloyltyramine]	30.4 ± 8 µM
COc1cc(CC(C)C(CO)Cc2ccc(O)c(OC)c2)ccc1O (centres unmarked) [Compound 10, 3,3′-dimethoxy-4,4′-dihydroxylignan-9-ol]	9 to 9.5 µM
COc1cc(CCC(=O)NCCc2ccc(O)cc2)ccc1O [Compound 5, dihydro-feruloyltyramine]	159 µM
COc1cc([C@H]2O[C@@H](c3ccc(O)c(OC)c3)[C@@H](C)[C@H]2C)ccc1O [Compound 1, tetrahydrofuroguaiacin B]	53.1 ± 2 µM

Same assay, conditions: Plasmodium falciparum, NF54, read-out: P. falciparum IC50

SMILES	IC50
CCN(CC)CCCC(C)Nc1ccnc2cc(Cl)ccc12 (centres unmarked) [chloroquine, reference compound]	0.01 µM

Tested on: trypanosomes
Experiment: not given
Conditions: cited from earlier work

SMILES	trypanocidal activity (in words)
COc1cc2cc3c(c(-c4ccc5c(c4)OCO5)c2cc1OC)C(=O)CO3 [Justicidin B]	showed trypanocidal activity

Tested on: P. falciparum
Experiment: not given
Conditions: cited from earlier work

SMILES	activity against P. falciparum (in words)
COc1cc2c(OC)c3c(c(-c4ccc5c(c4)OCO5)c2cc1OC)C(=O)OC3 [Justicidin A]	active
